Assay results: US20240270658A1, “Use of an N-Functionalized Alkoxy Pyrazole Compound as Nitrification Inhibitor” (BASF SE, priority 2021, published 2024)

What was measured:
[1] = Volatility of prior-art nitrification inhibitor; format: physicochemical; settings: statement in words on the prior-art compound
Text: Sharma et al. (J P Sharma, H K Taneja, S S Tomar Pesticide Research Journal, 2006, 18(1), 7-11) inter alia discloses 3-ethoxy-5-methylpyrazole as nitrification inhibitor.

[2] = system: nitrification (soil Limburgerhof, microbial biomass); test: Comparison of % NH4-N recovery in soil incubation, data pooled from different trials; settings: average pooled from different trials
Description: Examples 2 and 3 were further tested with regard to Comparative Example 1 in terms of the % NH4—N recovery. 100 g Soil (soil Limburgerhof with pH(CaCl2) 6.8; 73% sand, 23% silt, 4% clay, which is classified according to FAO as a sandy loam) is filled into 500 ml plastic bottles and is moistened to 50% water holding capacity. The soil is incubated at 20° C. for two weeks prior to the experiments to activate the microbial biomass. 1 ml Test solution, containing the compounds of formula I or the comparative example in the appropriate concentration (0.3 or 1% (w/w) of fertilized NH4—N), and 10 mg nitrogen in the form of ammoniumsulfate-N(NH4—N) is added to the soil and everything mixed well. Unfertilized controls received 1 ml pure water. Bottles are capped but loosely to allow air exchange. The bottles are then incubated at 20° C. for 14 days. For analysis, 300 ml of a 1% K2SO4-solution is added to the bottle containing the soil and shaken for 2 hours in a horizontal shaker at 150 rpm. Then the whole solution is filtered through a filter (Macherey-Nagel Filter MN 807%). Ammonium content is then analyzed in the filtrate using an autoanalyzer. Ammonium was quantified via an indophenol blue dye at 660 nm. The nitrification inhibition is expressed as % of NH4—N recovery from fertilized NH4—N (100%) after subtraction of unfertilized control soil. For comparison of the % NH4—N recovery of the compounds of the invention, i.e. Examples 2 and 3, with comparative example 1 as shown below from different trials, the standard deviation of a common treatment of all trials with DMPP (3,4-dimethylpyrazole phosphate) was calculated. Based on this calculation the data from different trials can be pooled together to calculate an average % NH4—N recovery for the compounds of the invention and the comparative compound as shown below.

[3] = Stability (recovery experiment) of nitrification inhibitor on treated fertilizer granules; format: physicochemical; settings: dose NI 1 % NH4N; for NI on fertilizer granules [%] after storage 4 weeks 20° C.: open beaker, 50% rH; for NI on fertilizer granules [%] initial: sample stored at -18° C.
Description: Examples 2 and 3 were further tested with regard to Comparative Example 1 in terms of their stability (recovery experiment)
Ammonium Sulphate Nitrate (ASN) fertilizer granules and Diammonium phosphate (DAP) fertilizer granules were treated with liquid preparations of the Nitrification Inhibitor (NI) of example 2 and 3 and Comparative Example 1.
For the recovery experiment, a small amount (˜10g) of each treated fertilizer sample was filled into a closed glass vial and stored at −18° C. Another 250 g of each treated fertilizer sample were filled into an open glass beaker and stored at 20° C. and 50% relative humidity (rH). After four weeks of storage, 50g of the samples stored at 20° C. and 50% rH were drawn from the bottom and analyzed by HPCL for NI content in comparison to the −18° C. sample. The recovery is given in % as ratio of the NI content of the 20° C. sample divided by the NI content of the −18° C. sample.

[4] = system: nitrification (soil Limburgerhof, microbial biomass); test: Inhibition of nitrification in soil incubation (NH4-N recovery and NO3-N formation); settings: 14 days after treatment, 20° C.
Description: The soil is incubated at 20° C. for two weeks prior to the experiments to activate the microbial biomass. 1 ml test solution, containing the compounds of formula I in the appropriate concentration (usually 0.3 or 1% (w/w) of fertilized NH4—N), and 10 mg nitrogen in the form of ammoniumsulfate-N(NH4—N) is added to the soil and everything mixed well. Unfertilized controls received 1 ml pure water. Bottles are capped but loosely to allow air exchange. The bottles are then incubated at 20° C. for 0 and 14 days. For analysis, 300 ml of a 1% K2SO4-solution is added to the bottle containing the soil and shaken for 2 hours in a horizontal shaker at 150 rpm. Then the whole solution is filtered through a filter (Macherey-Nagel Filter MN 807%). Ammonium and nitrate content is then analyzed in the filtrate using an autoanalyzer. Ammonium was quantified via an indophenol blue dye at 660 nm, and nitrate via an azo dye at 540 nm. The nitrification inhibition is expressed as % of NH4—N recovery from fertilized NH4—N (100%) after subtraction of unfertilized control soil, and as % inhibition of NO3—N formation (% reduction of NO3^− production) according to the formula: [formula]

[5] = applied dose 0.3 wt.-% relative to NH4-N
[6] = applied dose 1.0 wt.-% relative to NH4-N

Compound	volatility [1]	% NH4-N recovery after 14 days ([2]; 0.3 wt.-% relative to NH4-N) [%]	% NH4-N recovery after 14 days ([2]; 1 wt.-% relative to NH4-N) [%]	NI on fertilizer granules [%] after storage 4 weeks 20° C. ([3]; ASN fertilizer granules) [%]	NI on fertilizer granules [%] initial ([3]; ASN fertilizer granules) [%]	NI on fertilizer granules [%] after storage 4 weeks 20° C. ([3]; DAP fertilizer granules) [%]	NI on fertilizer granules [%] initial ([3]; DAP fertilizer granules) [%]	average inhibition % of NO3 DAT14 (n = 4) [4, 5] [%]	average recovery % NH4-N DAT14 (n = 4) [4, 5] [%]	average inhibition % of NO3 DAT14 (n = 4) [4, 6] [%]	average recovery % NH4-N DAT14 (n = 4) [4, 6] [%]
CCOc1cc(C)[nH]n1 [3-ethoxy-5-methylpyrazole]	high volatility										
CCOc1cc(C)nn1CO [Comparative Example 1, reference compound]		36	46	0.000	0.034	0.057	0.110				
CCCCCCCOC(=O)n1nc(C)cc1OC [Example 1]								44	40	82	68
CCCCCCCOC(=O)n1nc(OC)cc1C [Example 2]		47	58			0.015	0.023	60	55	89	66
CCOC(=O)CC(=O)n1nc(OC)cc1C [Example 3]		41	64	0.113	0.116	0.044	0.052	60	49	90	71
COc1cc(C)n(C(=O)C2CCOCC2)n1 [Example 4]								33	40	82	66
COc1cc(C)n(C(=O)c2cccc(F)c2)n1 [Example 5]								20	25	50	39
